The test system of the data set is CCRIS mutagenicity, Ames/micronucleus/aberration tests. The data set is described as follows: CCRIS mutagenicity studies.
Where [1] appears, read: Test System: AMES SALMONELLA TYPHIMURIUM, Strain/Indicator: TA98, Metabolic Activation: NONE, Method: PREINCUBATION
Setting [2] is: Test System: AMES SALMONELLA TYPHIMURIUM, Strain/Indicator: TA100, Metabolic Activation: NONE, Method: PREINCUBATION
The mark [3] stands for this setting: Test System: AMES SALMONELLA TYPHIMURIUM, Strain/Indicator: TA98, Metabolic Activation: NONE, Method: STANDARD PLATE.
Where [4] appears, read: Test System: AMES SALMONELLA TYPHIMURIUM, Strain/Indicator: TA100, Metabolic Activation: NONE, Method: STANDARD PLATE.
[5] abbreviates: Test System: AMES SALMONELLA TYPHIMURIUM, Strain/Indicator: TA98, Metabolic Activation: RAT, LIVER, S-9, AROCLOR 1254, Method: STANDARD PLATE.
[6] abbreviates: Test System: AMES SALMONELLA TYPHIMURIUM, Strain/Indicator: TA100, Metabolic Activation: RAT, LIVER, S-9, AROCLOR 1254, Method: STANDARD PLATE.

Activity calls are given as the source filed them. The rule behind the calls is not given here.

With `CC(=O)Oc1ccc2c(CBr)cc(=O)oc2c1`, the mutagenic call by setting is: under setting [1], “inactive; negative”; (Test System: AMES SALMONELLA TYPHIMURIUM, Strain/Indicator: TA98, Metabolic Activation: RAT, LIVER, S-9, PCB, Method: PREINCUBATION) “inactive; negative”; under setting [2], “inactive; negative”; (Test System: AMES SALMONELLA TYPHIMURIUM, Strain/Indicator: TA100, Metabolic Activation: RAT, LIVER, S-9, PCB, Method: PREINCUBATION) “inactive; negative”; (Test System: E. COLI, Strain/Indicator: WP2 UVRA, Metabolic Activation: NONE, Method: PREINCUBATION) “inactive; negative”.
For the molecule `COC(=O)C(=Cc1ccc(Br)o1)[N+](=O)[O-]`, the mutagenic call under setting [1] was “inactive; negative”.
Turning to `Cc1cc(O)c2c(c1O)C(=O)c1c(-c3ccc(O)c4c3C(=O)c3c(O)c(C)cc(O)c3C4=O)ccc(O)c1C2=O`, where the note is “Test System: UDS RODENT HEPATOCYTES, Strain/Indicator: THY INCORP, Metabolic Activation: NONE, Method: AUTORADIOGRAPHY”, the mutagenic call was “inactive; negative”.
Regarding `Cc1cc2c(c(O)c1O)C(=O)c1c(O)cc(O)cc1C2=O`, the mutagenic call under setting [3] is “inactive; negative”; the mutagenic call under setting [4] was “inactive; negative”; the mutagenic call (Test System: AMES SALMONELLA TYPHIMURIUM, Strain/Indicator: TA1535, Metabolic Activation: NONE, Method: STANDARD PLATE) is “inactive; negative”; the mutagenic call (Test System: AMES SALMONELLA TYPHIMURIUM, Strain/Indicator: TA1537, Metabolic Activation: NONE, Method: STANDARD PLATE) was “active; positive”; the mutagenic call (Test System: AMES SALMONELLA TYPHIMURIUM, Strain/Indicator: TA1537, Metabolic Activation: RAT, LIVER, S-9, PCB, Method: STANDARD PLATE) is “active; positive”.
Turning to `O=[N+]([O-])c1ccc2c3c(c(O)ccc13)-c1ccccc1-2`, the mutagenic call is, setting by setting: (Test System: AMES SALMONELLA TYPHIMURIUM, Strain/Indicator: TA98(1,8-DNP6), Metabolic Activation: NONE, Method: STANDARD PLATE) “inactive; negative”; (Test System: AMES SALMONELLA TYPHIMURIUM, Strain/Indicator: TA98(NR), Metabolic Activation: NONE, Method: STANDARD PLATE) “inactive; negative”; under setting [3], “active; positive”; (Test System: AMES SALMONELLA TYPHIMURIUM, Strain/Indicator: TA100(NR), Metabolic Activation: NONE, Method: STANDARD PLATE) “inactive; negative”; (Test System: AMES SALMONELLA TYPHIMURIUM, Strain/Indicator: TA100(TN5-1,8-DNP1012), Metabolic Activation: NONE, Method: STANDARD PLATE) “inactive; negative”; under setting [4], “inactive; negative”.
As for `CC1=C(/C=C/C(C)=C/C=C/C(C)=C/C=C/C=C(C)/C=C/C=C(\C)C=O)C(C)(C)CCC1`, the mutagenic call was “active; positive” (End Point: In vitro chromosomal aberrations, Test System: Primary rat (Fischer, female) hepatocytes, Metabolic Activation: None); “active; positive” (End Point: In vitro micronucleus, Test System: Primary rat (Fischer, female) hepatocytes, Metabolic Activation: None); “inactive; negative” under setting [3]; “inactive; negative” under setting [5]; “inactive; negative” under setting [4]; “inactive; negative” under setting [6].
Turning to `Cn1c([N+](=O)[O-])cnc1C1NC(CO)(CO)CO1` (stereo unspecified), the mutagenic call runs as follows: (Test System: AMES SALMONELLA TYPHIMURIUM, Strain/Indicator: TA97, Metabolic Activation: NONE, Method: STANDARD PLATE) “active; positive”; (Test System: AMES SALMONELLA TYPHIMURIUM, Strain/Indicator: TA97, Metabolic Activation: RAT, LIVER, S-9, AROCLOR 1254, Method: STANDARD PLATE) “active; positive”; under setting [3], “active; positive”; under setting [5], “active; positive”; under setting [4], “active; positive”; under setting [6], “active; positive”. For the same molecule, the mutagenic call reads like this: (Test System: AMES SALMONELLA TYPHIMURIUM, Strain/Indicator: TA102, Metabolic Activation: NONE, Method: STANDARD PLATE) “active; positive”; (Test System: AMES SALMONELLA TYPHIMURIUM, Strain/Indicator: TA102, Metabolic Activation: RAT, LIVER, S-9, AROCLOR 1254, Method: STANDARD PLATE) “active; positive”.
With `CC(C)(C)C(=O)C1C(=O)c2ccccc2C1=O`, the mutagenic call by setting is: (Test System: AMES SALMONELLA TYPHIMURIUM, Strain/Indicator: TA98, Metabolic Activation: HAMSTER, LIVER, S-9, AROCLOR 1254 (10%), Method: PREINCUBATION) “inactive; negative”; under setting [1], “inactive; negative”; (Test System: AMES SALMONELLA TYPHIMURIUM, Strain/Indicator: TA98, Metabolic Activation: RAT, LIVER, S-9, AROCLOR 1254 (10%), Method: PREINCUBATION) “inactive; negative”; (Test System: AMES SALMONELLA TYPHIMURIUM, Strain/Indicator: TA100, Metabolic Activation: HAMSTER, LIVER, S-9, AROCLOR 1254 (10%), Method: PREINCUBATION) “inactive; negative”; under setting [2], “inactive; negative”; (Test System: AMES SALMONELLA TYPHIMURIUM, Strain/Indicator: TA100, Metabolic Activation: RAT, LIVER, S-9, AROCLOR 1254 (10%), Method: PREINCUBATION) “inactive; negative”. The mutagenic call reads like this: (Test System: AMES SALMONELLA TYPHIMURIUM, Strain/Indicator: TA1535, Metabolic Activation: HAMSTER, LIVER, S-9, AROCLOR 1254 (10%), Method: PREINCUBATION) “inactive; negative”; (Test System: AMES SALMONELLA TYPHIMURIUM, Strain/Indicator: TA1535, Metabolic Activation: NONE, Method: PREINCUBATION) “inactive; negative”; (Test System: AMES SALMONELLA TYPHIMURIUM, Strain/Indicator: TA1535, Metabolic Activation: RAT, LIVER, S-9, AROCLOR 1254 (10%), Method: PREINCUBATION) “inactive; negative”; (Test System: AMES SALMONELLA TYPHIMURIUM, Strain/Indicator: TA1537, Metabolic Activation: HAMSTER, LIVER, S-9, AROCLOR 1254 (10%), Method: PREINCUBATION) “inactive; negative”; (Test System: AMES SALMONELLA TYPHIMURIUM, Strain/Indicator: TA1537, Metabolic Activation: NONE, Method: PREINCUBATION) “inactive; negative”; (Test System: AMES SALMONELLA TYPHIMURIUM, Strain/Indicator: TA1537, Metabolic Activation: RAT, LIVER, S-9, AROCLOR 1254 (10%), Method: PREINCUBATION) “inactive; negative”.
Take `Nc1nc2ncc(CNc3ccc(C(=O)N[C@@H](CCC(=O)O)C(=O)O)cc3)nc2c(=O)[nH]1`: the mutagenic call runs as follows: (Test System: AMES SALMONELLA TYPHIMURIUM, Strain/Indicator: TA97A, Metabolic Activation: NONE, Method: PREINCUBATION) “inactive; negative”; (Test System: AMES SALMONELLA TYPHIMURIUM, Strain/Indicator: TA97A, Metabolic Activation: RAT, LIVER, S-9, AROCLOR 1254, Method: PREINCUBATION) “inactive; negative”; (Test System: AMES SALMONELLA TYPHIMURIUM, Strain/Indicator: TA102, Metabolic Activation: NONE, Method: PREINCUBATION) “inactive; negative”; (Test System: AMES SALMONELLA TYPHIMURIUM, Strain/Indicator: TA102, Metabolic Activation: RAT, LIVER, S-9, AROCLOR 1254, Method: PREINCUBATION) “inactive; negative”.
Regarding `O=C1CCCc2ccc3c([N+](=O)[O-])c4ccccc4cc3c21`, the mutagenic call is “inactive; negative” (Test System: AMES SALMONELLA TYPHIMURIUM, Strain/Indicator: TA98, Metabolic Activation: NONE); “inactive; negative” (Test System: AMES SALMONELLA TYPHIMURIUM, Strain/Indicator: TA98, Metabolic Activation: S-9); “inactive; negative” (Test System: AMES SALMONELLA TYPHIMURIUM, Strain/Indicator: TA100, Metabolic Activation: NONE); “inactive; negative” (Test System: AMES SALMONELLA TYPHIMURIUM, Strain/Indicator: TA100, Metabolic Activation: S-9).
Consider `CCOc1ccc(NC(=O)CC(C)O)cc1` (stereo unspecified), for which the mutagenic call is “active; positive” (Test System: AMES SALMONELLA TYPHIMURIUM, Strain/Indicator: TA100, Metabolic Activation: HAMSTER, LIVER, S-9, KANECHLOR 400, Method: PREINCUBATION); “inactive; negative” (Test System: AMES SALMONELLA TYPHIMURIUM, Strain/Indicator: TA100, Metabolic Activation: HAMSTER, LIVER, S-9, Method: PREINCUBATION); “inactive; negative” (Test System: AMES SALMONELLA TYPHIMURIUM, Strain/Indicator: TA100, Metabolic Activation: RAT, LIVER, S-9, KANECHLOR 400, Method: PREINCUBATION); “inactive; negative” (Test System: AMES SALMONELLA TYPHIMURIUM, Strain/Indicator: TA100, Metabolic Activation: RAT, LIVER, S-9, Method: PREINCUBATION).
